Two compounds from article PMC7849180 (Frontiers in Pharmacology, 2020) can be followed below.

Like-named read-outs stand apart in the source and are kept apart here.

Data set [1] in a line: Treatment-related AEs (NCI CTCAE), MAD cohorts. Type of data set: in vivo, human. The protocol: MAD study was conducted after evaluating the tolerance of the single dose 100 mg cohort. In MAD part, volunteers were designed into five cohorts (100 mg q24h, 150 mg q24h, 100 mg q12h, 200 mg q24h, 150 mg q12h). […] The MAD part was initiated after the safety and tolerance evaluation from SAD 100 mg cohorts. Progression to higher MAD doses was allowed after review the safety data of the prior MAD cohorts.
Dose-limiting toxicities (DLTs) were defined according to the NCI CTCAE v.4.03 as any occurrence of the following drug-related adverse events (AEs): more than one third of volunteers suffered Grade ≥4 drug-related hematological toxicities or Grade ≥3 drug-related nonhematological toxicities; one drug-related serious adverse events (SAEs).

Data set [2] deals with Ba/F3-EpoR-JAK2V617F cells. Kind of data set: Cell activity of mutant Ba/F3-EpoR-JAK2V617F. The note with it: read-out: IC50, inhibition of cell activity. Type of data set: cell-based. From the text:
(§1) Suzhou Zelgen Biopharmaceuticals Co., Ltd. Jaktinib Hydrochloride Tablets Chemical Drug Class 1 New Drug has been completed. The ongoing toxicity tests include a long-term 39-week toxicity test in Beagle dogs by oral administration, a reproductive toxicity test in rats during the teratogenic sensitive period, and a reproductive toxicity test in rabbits during the teratogenic sensitive period.
(§2) Preclinical Pharmacodynamic Study
(§3) Study on the in vitro Pharmacodynamic Effects of ZG0163 at the […]
(§4) In this study, the effects of ZG0163 was similar to those of positive control compounds, ZG0164 and ZG0178.
(§5) Study on the in vitro Pharmacodynamic Effects of ZG0163 at the Cellular Level (Ba/F3-EpoR-JAK2V617F cells)
(§6) JAK2V617F cell line, the compound ZG0163 was able to induce apoptosis of pathogenic cells and eliminate abnormal cell proliferation by inhibiting the JAK-STAT signaling pathway, thus achieving treatment efficacy in myeloproliferative neoplasms. […]
(§7) cell line, manifested as significant inhibition of phosphorylation of JAK2 and its downstream signaling proteins ERK and STAT5. The effects of ZG0163 was similar to those of positive control compounds, ZG0164 and ZG0178.
EpoR-JAK2V617F, which was similar to those of positive control compounds, ZG0164 […]
and ZG0178. However, the inhibitory effect on the activity of Ba/F3-EpoR cell line […]
respectively. […]

The subject of a further data set is JNK. Kind of data set: Phosphorylation of c-Jun by JNK. The class given is biochemical.
Excerpt: as §1, §2, §3, §4, §5, §6, §7
EpoR-JAK2V617F, which was similar to those of positive control compounds, ZG0164

Data set [3] can be described thus: General physicochemical properties. From the text:
Suzhou Zelgen Biopharmaceuticals Co., Ltd. Jaktinib Hydrochloride Tablets Chemical Drug Class 1 New Drug
Table 5. General physicochemical properties of Jaktinib hydrochloride […]
Appearance Yellow to orange crystalline powder; Odorless; Bitter taste […]
methylpyrrolidone; soluble in N, N-dimethyl formamide; […]
acetonitrile, dioxane, tert-butyl methyl ether or water
Jaktinib dihydrochloride monohydrate is a crystalline solid
Crystal Form containing two molecules of hydrogen chloride and one molecule of water of crystallization, with its crystal form being polymorph

Another data set relates to test strains. In words: Ames test. The note with it: 9.76–6100 μg/mL, with or without S9. From the text:
Suzhou Zelgen Biopharmaceuticals Co., Ltd. Jaktinib Hydrochloride Tablets

Data set [4] in a line: Metabolic stability in liver microsomes. Type of data set: in vitro ADME, monkey. The protocol:
(§8) The metabolic stability of ZG0128 (the dihydrochloride monohydrate of ZG0163) was evaluated using human, monkey, dog, rat, and mouse liver microsomes as the in vitro models. The percentages of residues for ZG0128 after incubating in human, monkey, dog, rat, and mouse liver microsomes for 60 minutes was 55.5%, 63.1%, 67.1%, 80.3%, and 79.0%, respectively. The CLint values of in vivo clearance were calculated to be 24.1, 21.6, 33.4, 10.7, 26.0 mL/min/kg, respectively. Thus its was speculated that ZG0128 was a medium clearance drug in humans, monkeys, and mice, a high clearance drug in dogs, and a low clearance drug in rats.
(§9) Using UPLC-UV/Q-TOF MS, the potential metabolites of ZG0128 in various liver microsomes (human, monkey, dog, rat and mouse liver microsomes) incubation systems were identified and the metabolic pathways of ZG0128 were speculated. The main metabolite of ZG0128 in above five types of liver microsomes were primary alcohol metabolite formed by morpholine ring-opening (M3). […]

The nature of data set [5]: Metabolic stability in liver microsomes. The class given is in vitro ADME, rat. As to the method: as §8, §9

For the compound Jaktinib, in data set [1] (MAD jaktinib group), the diarrhea incidence is 22.5%, the dizziness incidence worked out at 17.5% and the leukopenia incidence came out at 12.5%. For the same compound, in data set [1] (all MAD cohorts), the “volunteers with treatment-related AEs” value came to 74.0%. In data set [1] (all cohorts (SAD, MAD, food effect)), the “deaths, SAEs and Grade ≥4 AEs” value was “No deaths, SAEs and Grade ≥4 AEs were reported”. Moreover, the Neutropenia incidence in data set [1] (in vivo) came to 27.5%. Besides, the maximally tolerated dose in data set [1] (multiple dose, q24 h) was 200 mg. Moreover, the half-inhibitory concentration (IC50) in data set [2] was determined as 0.5 µM. In addition, the “effect on phosphorylation of c-Jun by JNK” value in the data set on JNK is recorded as “no significant effects”.
For `Cl.Cl.O.[2H]C1([2H])COCC([2H])([2H])N1c1ccc(Nc2nccc(-c3ccc(C(=O)NCC#N)cc3)n2)cc1` [ZG0128, Jaktinib Dihydrochloride Monohydrate], the Hygroscopicity result in data set [3] is “Slightly hygroscopic”. Also, the Solubility entry in data set [3] (0.1 mol/L hydrochloric acid) is on record as “slightly soluble”; in data set [3] (dimethyl sulfoxide), “freely soluble”; in data set [3] (ethanol) it was “slightly soluble in ethanol”; in data set [3] (methanol), “slightly soluble”; in data set [3] (water) it was “practically insoluble”. Moreover, in the data set with test strains, the Ames test result is “negative”. In addition, the “CLint of in vivo clearance” value in data set [4] is 1.3 L/h/kg; in data set [5], 0.642 L/h/kg. In addition, the “percentage of residue after 60 minutes” value in data set [4] is listed as 63.1%; in data set [5], 80.3%.
